Read-outs that look alike come from different tables or passages of the source. Numbered stars: 1 amine (or outer) side, 2 acyl side, 3 side chain; on linkers, the order of the positions; unused ones are H or OH. Bridge positions count the residues as written; N and C are the ends. Square brackets hold non-standard residues; d marks the D form. Peptide text beside a SMILES is read from it. I, II: the chains in the order shown. ξ: configuration not given here. X2 = O=C(CCOCCOCCOCCOCCOCCOCCOCCOCCOCCOCCOCCOCCOCCOCCOCCOCCOCCOCCOCCOCCOCCOCCOCCOCCOCCC(=O)[*:2])[*:1]; Phe(4-COOH) = N[C@@H](Cc1ccc(C(=O)O)cc1)C(=O)O; Phe(4-tBu) = CC(C)(C)c1ccc(C[C@H](N)C(=O)O)cc1; 1Nal = N[C@@H](Cc1cccc2ccccc12)C(=O)O; 2Nal = N[C@@H](Cc1ccc2ccccc2c1)C(=O)O; Diglycolyl = O=C(COCC(=O)[*:2])[*:1]; NMeR = CN[C@@H](CCCNC(=N)N)C(=O)O; β3hE = N[C@@H](CCC(=O)O)CC(=O)O; Thr(3ξ) = CC(O)[C@H](N)C(=O)O; NMeK = CN[C@@H](CCCCN)C(=O)O; Pen = CC(C)(S)[C@H](N)C(=O)O
How the values were obtained:
[1] = target: α4β7 (Homo sapiens, UniProt P13612+P26010); assay: α4β7-MAdCAM Cell Adhesion Assay (RPMI 8866 human cells); type: cell-based; set-up: host or cells: RPMI 8866 human B lymphoblastoid cells
Chain of α4β7 (P13612 34-1032): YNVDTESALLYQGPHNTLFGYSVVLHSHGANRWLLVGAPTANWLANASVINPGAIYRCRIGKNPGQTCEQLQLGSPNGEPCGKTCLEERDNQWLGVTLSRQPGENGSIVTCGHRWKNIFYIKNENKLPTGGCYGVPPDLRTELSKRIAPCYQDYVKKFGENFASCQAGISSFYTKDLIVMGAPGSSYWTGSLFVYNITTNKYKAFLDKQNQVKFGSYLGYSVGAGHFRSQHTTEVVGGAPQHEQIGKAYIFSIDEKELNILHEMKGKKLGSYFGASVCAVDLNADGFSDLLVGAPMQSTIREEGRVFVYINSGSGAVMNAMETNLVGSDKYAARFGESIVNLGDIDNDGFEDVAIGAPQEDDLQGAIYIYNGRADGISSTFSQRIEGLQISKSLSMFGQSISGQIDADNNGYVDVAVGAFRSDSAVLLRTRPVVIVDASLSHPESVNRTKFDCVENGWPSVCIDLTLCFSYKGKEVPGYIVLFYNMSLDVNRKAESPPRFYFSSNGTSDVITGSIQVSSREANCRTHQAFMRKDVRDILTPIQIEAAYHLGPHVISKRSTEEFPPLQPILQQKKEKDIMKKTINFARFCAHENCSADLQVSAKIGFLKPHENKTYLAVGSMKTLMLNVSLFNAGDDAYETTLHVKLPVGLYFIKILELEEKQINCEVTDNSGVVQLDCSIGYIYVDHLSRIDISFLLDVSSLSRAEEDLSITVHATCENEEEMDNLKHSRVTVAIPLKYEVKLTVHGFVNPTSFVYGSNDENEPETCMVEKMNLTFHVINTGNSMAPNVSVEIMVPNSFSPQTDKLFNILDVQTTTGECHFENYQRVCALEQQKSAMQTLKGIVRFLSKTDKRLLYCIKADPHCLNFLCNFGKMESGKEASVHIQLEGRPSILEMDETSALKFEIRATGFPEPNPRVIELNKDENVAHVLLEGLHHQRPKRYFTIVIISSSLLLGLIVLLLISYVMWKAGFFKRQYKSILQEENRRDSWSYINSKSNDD
Chain of α4β7 (P26010 20-798): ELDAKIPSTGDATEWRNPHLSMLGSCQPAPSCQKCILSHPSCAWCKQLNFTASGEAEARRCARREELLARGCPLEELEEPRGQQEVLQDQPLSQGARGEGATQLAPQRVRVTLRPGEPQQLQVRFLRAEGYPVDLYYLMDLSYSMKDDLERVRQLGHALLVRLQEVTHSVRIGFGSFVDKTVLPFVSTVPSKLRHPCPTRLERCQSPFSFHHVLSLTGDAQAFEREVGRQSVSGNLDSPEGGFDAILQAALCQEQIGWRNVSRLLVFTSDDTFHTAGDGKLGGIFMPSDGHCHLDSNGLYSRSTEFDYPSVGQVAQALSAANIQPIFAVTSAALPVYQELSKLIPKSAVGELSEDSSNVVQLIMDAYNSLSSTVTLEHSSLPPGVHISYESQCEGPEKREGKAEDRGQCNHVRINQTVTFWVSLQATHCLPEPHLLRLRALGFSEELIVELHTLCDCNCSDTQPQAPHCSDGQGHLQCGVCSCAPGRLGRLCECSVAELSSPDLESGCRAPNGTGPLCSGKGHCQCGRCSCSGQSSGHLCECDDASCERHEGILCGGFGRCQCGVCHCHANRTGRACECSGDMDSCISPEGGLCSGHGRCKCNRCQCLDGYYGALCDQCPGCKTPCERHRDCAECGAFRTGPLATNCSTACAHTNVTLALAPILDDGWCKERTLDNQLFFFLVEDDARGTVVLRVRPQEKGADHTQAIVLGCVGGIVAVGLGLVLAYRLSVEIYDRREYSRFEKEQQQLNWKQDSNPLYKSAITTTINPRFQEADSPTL
Outline: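 Washed RPMI 8866 cells (200,000/well) in DMEM with 0.1% BSA, 10 mM HEPES pH 7, 1 mM MnCl2 adhered to rh MAdCAM-1/Fc-coated wells with serially diluted peptides, 30-45 min at 37 °C. After three washes, bound cells quantified by MTT, A570, cell-free background subtracted for dose response.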

[2] = target: T1, rh integrin α4β7 (Homo sapiens, UniProt P13612+P26010); assay: α4β7-MAdCAM Competition ELISA; type: binding
T1 construct: purchased R&D Systems 5397-A30
T1 sequence (P13612 34-977 limits assumed): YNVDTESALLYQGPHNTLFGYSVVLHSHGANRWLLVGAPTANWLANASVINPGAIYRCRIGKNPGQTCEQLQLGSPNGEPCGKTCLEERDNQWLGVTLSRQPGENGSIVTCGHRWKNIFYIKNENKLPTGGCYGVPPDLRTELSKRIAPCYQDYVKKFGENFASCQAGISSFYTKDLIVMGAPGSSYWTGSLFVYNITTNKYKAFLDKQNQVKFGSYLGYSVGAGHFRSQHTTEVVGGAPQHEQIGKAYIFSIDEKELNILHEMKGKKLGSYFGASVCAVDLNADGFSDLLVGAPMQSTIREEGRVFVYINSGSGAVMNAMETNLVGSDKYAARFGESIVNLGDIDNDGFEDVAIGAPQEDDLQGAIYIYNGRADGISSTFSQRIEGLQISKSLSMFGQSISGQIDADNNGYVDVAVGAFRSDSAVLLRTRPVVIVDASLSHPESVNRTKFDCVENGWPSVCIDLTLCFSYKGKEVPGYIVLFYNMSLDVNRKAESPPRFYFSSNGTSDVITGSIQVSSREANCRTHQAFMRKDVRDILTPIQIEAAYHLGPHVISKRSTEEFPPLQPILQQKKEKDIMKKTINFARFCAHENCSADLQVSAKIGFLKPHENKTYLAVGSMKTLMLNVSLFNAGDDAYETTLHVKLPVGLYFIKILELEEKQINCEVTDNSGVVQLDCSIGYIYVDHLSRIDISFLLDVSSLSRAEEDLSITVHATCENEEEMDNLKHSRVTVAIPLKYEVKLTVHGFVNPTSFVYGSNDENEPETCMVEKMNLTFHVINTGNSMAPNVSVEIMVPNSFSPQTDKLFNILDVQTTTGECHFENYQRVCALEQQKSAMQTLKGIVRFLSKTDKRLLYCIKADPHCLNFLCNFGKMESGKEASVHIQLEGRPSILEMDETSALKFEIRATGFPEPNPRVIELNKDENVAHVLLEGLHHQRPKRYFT
T1 sequence (P26010 20-723 limits assumed): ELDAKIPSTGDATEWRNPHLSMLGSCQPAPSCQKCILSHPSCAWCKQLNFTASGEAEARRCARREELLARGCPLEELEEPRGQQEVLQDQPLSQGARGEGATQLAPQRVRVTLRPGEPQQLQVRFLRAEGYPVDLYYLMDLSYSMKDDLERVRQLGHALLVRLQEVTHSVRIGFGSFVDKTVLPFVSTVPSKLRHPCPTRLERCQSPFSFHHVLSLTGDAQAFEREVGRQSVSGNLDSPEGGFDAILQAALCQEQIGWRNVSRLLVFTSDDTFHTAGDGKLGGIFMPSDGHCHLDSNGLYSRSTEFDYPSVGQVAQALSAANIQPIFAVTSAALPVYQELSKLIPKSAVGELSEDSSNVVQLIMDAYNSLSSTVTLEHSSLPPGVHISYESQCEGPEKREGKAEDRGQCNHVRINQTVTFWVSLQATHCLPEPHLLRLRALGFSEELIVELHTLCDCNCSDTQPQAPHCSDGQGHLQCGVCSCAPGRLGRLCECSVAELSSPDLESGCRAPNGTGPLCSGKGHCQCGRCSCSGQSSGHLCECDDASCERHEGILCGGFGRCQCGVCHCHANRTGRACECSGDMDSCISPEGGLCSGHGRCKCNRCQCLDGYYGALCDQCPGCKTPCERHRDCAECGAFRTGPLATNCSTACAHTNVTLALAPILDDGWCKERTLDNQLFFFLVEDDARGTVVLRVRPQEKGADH
Outline: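 Recombinant human α4β7 was captured on nickel plates at 800 ng/well. Peptide in 3-fold serial dilution (final top 10 μM) competed with MAdCAM-1 (final 10 nM) for 1 h at room temperature in 50 mM Tris pH 7.6, 150 mM NaCl, 1 mM MnCl2 or MgCl2. Bound MAdCAM-1 was detected with anti-human IgG1-HRP/TMB at A450.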

[3] = Simulated Intestinal Fluid (SIF) Stability Assay; type: in vitro ADME, porcine; conditions: pig, simulated intestinal fluid (SIF) with 1% porcine pancreatin
Outline: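 Peptides (22 μM final) incubated at 37 °C in FASSIF (pH 6.5) with 1% porcine pancreatin; aliquots quenched at various times and analyzed by LC-MS/MS against internal standard. Half-life from first-order exponential decay fit of percent remaining.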

[4] = Table 3-B, Potency (α4β7), range classes, read-out: α4β7 cell (Hu) IC50
[5] = Table 3-B, Potency (α4β7), range classes, read-out: α4β7 ELISA IC50
[6] = Table 4-B, read-out: ELISA α4β7 IC50
[7] = pH 6.5, Table 4-C, t1/2, > means assay stopped at that time, read-out: SIF (porcine) Min
[8] = pH 6.5, Table 3-B, > means experiment was stopped at that time and half life was not reached, read-out: Stabilty SIF t1/2
[9] = Table 4-B, read-out: Cell Adhesion α4β7 IC50

| SMILES | IC50 [1, 4] [µM] | IC50 [2, 5] [µM] | IC50 [2, 6] [µM] | half-life at 22 μM [3, 7] [h] | IC50 [1, 9] [µM] | further results |
| --- | --- | --- | --- | --- | --- | --- |
| CC(=O)N[C@@H]1C(=O)N(C)[C@@H](CCCNC(=N)N)C(=O)N[C@@H](CO)C(=O)N[C@@H](CC(=O)O)C(=O)N[C@@H]([C@@H](C)O)C(=O)N[C@@H](CC(C)C)C(=O)N[C@H](C(=O)N[C@@H](Cc2c[nH]c3ccccc23)C(=O)N[C@@H](CCC(=O)O)C(=O)N[C@H](CCCCNC(=O)COCC(=O)NCCCC[C@@H](NC(=O)[C@H](CCC(=O)O)NC(=O)[C@H](Cc2c[nH]c3ccccc23)NC(=O)[C@H]2NC(=O)[C@H](CC(C)C)NC(=O)[C@H]([C@@H](C)O)NC(=O)[C@H](CC(=O)O)NC(=O)[C@H](CO)NC(=O)[C@H](CCCNC(=N)N)N(C)C(=O)[C@@H](NC(C)=O)C(C)(C)SSC2(C)C)C(=O)O)C(=O)O)C(C)(C)SSC1(C)C [compound 78] (I: Ac-[Pen][NMeR]SDTL[Pen]WE[dK]-OH / II: Ac-[Pen][NMeR]SDTL[Pen]WE[dK]-OH; disulfide I:1-I:7, II:1-II:7; linker I:10-II:10 via Diglycolyl) | < 0.01 | < 0.01 | – | – | – | – |
| CC(=O)N[C@@H]1C(=O)N(C)[C@@H](CCCNC(=N)N)C(=O)N[C@@H](CO)C(=O)N[C@@H](CC(=O)O)C(=O)N[C@@H]([C@@H](C)O)C(=O)N[C@@H](CC(C)C)C(=O)N[C@H](C(=O)N[C@@H](Cc2ccc3ccccc3c2)C(=O)N[C@@H](CCC(=O)O)C(=O)N[C@H](CCCCN)C(N)=O)C(C)(C)SSC1(C)C [compound 210, Ac-Pen-N-Me-R-S-D-T-L-Pen-2-Nal-E-k-NH2] (Ac-[Pen][NMeR]SDTL[Pen][2Nal]E[dK]-NH2; disulfide 1-7) | – | – | 0.011 | > 5 | – | – |
| CC(=O)N[C@@H]1C(=O)N(C)[C@@H](CCCNC(=N)N)C(=O)N[C@@H](CO)C(=O)N[C@@H](CC(=O)O)C(=O)N[C@@H]([C@@H](C)O)C(=O)N[C@@H](CC(C)C)C(=O)N[C@H](C(=O)N[C@@H](Cc2ccc(C(C)(C)C)cc2)C(=O)N[C@@H](CCC(=O)O)CC(=O)O)C(C)(C)SSC1(C)C [compound 152] (Ac-[Pen][NMeR]SDTL[Pen][Phe(4-tBu)][β3hE]-OH; disulfide 1-7) | < 0.01 | < 0.01 | – | – | – | half-life at 22 μM [3, 8]: 2.45 h |
| CC(=O)N[C@H]1CSSC(C)(C)[C@@H](C(=O)N[C@H](CCCCN)C(N)=O)NC(=O)[C@H](CC(C)C)NC(=O)[C@H]([C@@H](C)O)NC(=O)[C@H](CC(=O)O)NC(=O)[C@H](CO)NC(=O)[C@H](CCCNC(=N)N)N(C)C1=O [compound 202, Ac-C-N-Me-R-S-D-T-L-Pen-k-NH2] (Ac-C[NMeR]SDTL[Pen][dK]-NH2; disulfide 1-7) | – | – | 0.087 | > 6 | 11 | – |
| CC(=O)N[C@@H]1C(=O)N(C)[C@@H](CCCNC(=N)N)C(=O)N[C@@H](CO)C(=O)N[C@@H](CC(=O)O)C(=O)N[C@@H]([C@@H](C)O)C(=O)N[C@@H](CC(C)C)C(=O)N[C@H](C(=O)N[C@@H](Cc2ccc(C(=O)O)cc2)C(=O)N[C@@H](CCC(=O)O)CC(=O)N(C)[C@@H](CCCCNC(=O)COCC(=O)NCCCC[C@@H](C(N)=O)N(C)C(=O)C[C@H](CCC(=O)O)NC(=O)[C@H](Cc2ccc(C(=O)O)cc2)NC(=O)[C@H]2NC(=O)[C@H](CC(C)C)NC(=O)[C@H]([C@@H](C)O)NC(=O)[C@H](CC(=O)O)NC(=O)[C@H](CO)NC(=O)[C@H](CCCNC(=N)N)N(C)C(=O)[C@@H](NC(C)=O)C(C)(C)SSC2(C)C)C(N)=O)C(C)(C)SSC1(C)C [compound 148] (I: Ac-[Pen][NMeR]SDTL[Pen][Phe(4-COOH)][β3hE][NMeK]-NH2 / II: Ac-[Pen][NMeR]SDTL[Pen][Phe(4-COOH)][β3hE][NMeK]-NH2; disulfide I:1-I:7, II:1-II:7; linker I:10-II:10 via Diglycolyl) | < 0.01 | < 0.01 | – | – | – | half-life at 22 μM [3, 8]: > 5 h |
| CC(=O)N[C@@H]1C(=O)N[C@@H](CCCNC(=N)N)C(=O)N[C@@H](CO)C(=O)N[C@@H](CC(=O)O)C(=O)N[C@@H]([C@@H](C)O)C(=O)N[C@@H](CC(C)C)C(=O)N[C@H](C(=O)N[C@H](CCCCNC(=O)COCC(=O)NCCCC[C@@H](NC(=O)[C@@H]2CSSC(C)(C)[C@H](NC(C)=O)C(=O)N[C@@H](CCCNC(=N)N)C(=O)N[C@@H](CO)C(=O)N[C@@H](CC(=O)O)C(=O)N[C@@H]([C@@H](C)O)C(=O)N[C@@H](CC(C)C)C(=O)N2)C(N)=O)C(N)=O)CSSC1(C)C [compound 207, (Ac-Pen-R-S-D-T-L-C-k-NH2)2-DIG] (I: Ac-[Pen]RSDTLC[dK]-NH2 / II: Ac-[Pen]RSDTLC[dK]-NH2; disulfide I:1-I:7, II:1-II:7 (inferred); linker I:8-II:8 via Diglycolyl (inferred)) | – | – | 0.026 | < 0.333 | 0.049 | – |
| CC(=O)N[C@H]1CSSC[C@@H](C(=O)NCC(=O)N[C@@H](CCC(=O)O)C(N)=O)NC(=O)[C@H](CC(C)C)NC(=O)[C@H]([C@@H](C)O)NC(=O)[C@H](CC(=O)O)NC(=O)[C@H](CO)NC(=O)[C@H](CCCNC(=N)N)N(C)C1=O [compound 198, Ac-C-N-Me-R-S-D-T-L-C-G-E-NH2] (Ac-C[NMeR]SDTLCGE-NH2; disulfide 1-7) | – | – | 0.02 | – | 1.12 | – |
| CC(=O)N[C@H]1CSSC[C@@H](C(=O)NCC(=O)N[C@@H](CCC(=O)O)C(=O)N[C@@H](CCCCNC(=O)CCOCCOCCOCCOCCOCCOCCOCCOCCOCCOCCOCCOCCOCCOCCOCCOCCOCCOCCOCCOCCOCCOCCOCCOCCOCCC(=O)NCCCC[C@H](NC(=O)[C@H](CCC(=O)O)NC(=O)CNC(=O)[C@@H]2CSSC[C@H](NC(C)=O)C(=O)N[C@@H](CCCNC(=N)N)C(=O)N[C@@H](CO)C(=O)N[C@@H](CC(=O)O)C(=O)N[C@@H]([C@@H](C)O)C(=O)N[C@@H](CC(C)C)C(=O)N2)C(N)=O)C(N)=O)NC(=O)[C@H](CC(C)C)NC(=O)[C@H]([C@@H](C)O)NC(=O)[C@H](CC(=O)O)NC(=O)[C@H](CO)NC(=O)[C@H](CCCNC(=N)N)NC1=O [compound 197, (Ac-C-R-S-D-T-L-C-G-E-K-NH2)2-PEG25] (I: Ac-CRSDTLCGEK-NH2 / II: Ac-CRSDTLCGEK-NH2; disulfide I:1-I:7, II:1-II:7; linker I:10-II:10 via X2) | – | – | 0.036 | – | 0.301 | – |
| CC(=O)N[C@@H]1C(=O)N(C)[C@@H](CCCNC(=N)N)C(=O)N[C@@H](CO)C(=O)N[C@@H](CC(=O)O)C(=O)N[C@@H]([C@@H](C)O)C(=O)N[C@@H](CC(C)C)C(=O)N[C@H](C(=O)N[C@@H](Cc2cccc3ccccc23)C(=O)N[C@@H](CCC(=O)O)CC(=O)N(C)[C@@H](CCCCNC(=O)COCC(=O)NCCCC[C@@H](C(N)=O)N(C)C(=O)C[C@H](CCC(=O)O)NC(=O)[C@H](Cc2cccc3ccccc23)NC(=O)[C@H]2NC(=O)[C@H](CC(C)C)NC(=O)[C@H]([C@@H](C)O)NC(=O)[C@H](CC(=O)O)NC(=O)[C@H](CO)NC(=O)[C@H](CCCNC(=N)N)N(C)C(=O)[C@@H](NC(C)=O)C(C)(C)SSC2(C)C)C(N)=O)C(C)(C)SSC1(C)C [compound 142] (I: Ac-[Pen][NMeR]SDTL[Pen][1Nal][β3hE][NMeK]-NH2 / II: Ac-[Pen][NMeR]SDTL[Pen][1Nal][β3hE][NMeK]-NH2; disulfide I:1-I:7, II:1-II:7; linker I:10-II:10 via Diglycolyl) | < 0.01 | < 0.01 | – | – | – | – |
| CC(=O)N[C@@H]1C(=O)N(C)[C@@H](CCCNC(=N)N)C(=O)N[C@@H](CO)C(=O)N[C@@H](CC(=O)O)C(=O)N[C@@H](C(C)O)C(=O)N[C@@H](CC(C)C)C(=O)N[C@H](C(=O)N[C@@H](Cc2ccc(C(C)(C)C)cc2)C(=O)N[C@@H](CCC(=O)O)CC(=O)N[C@H](CCCCNC(=O)COCC(=O)NCCCC[C@@H](NC(=O)C[C@H](CCC(=O)O)NC(=O)[C@H](Cc2ccc(C(C)(C)C)cc2)NC(=O)[C@H]2NC(=O)[C@H](CC(C)C)NC(=O)[C@H](C(C)O)NC(=O)[C@H](CC(=O)O)NC(=O)[C@H](CO)NC(=O)[C@H](CCCNC(=N)N)N(C)C(=O)[C@@H](NC(C)=O)C(C)(C)SSC2(C)C)C(N)=O)C(N)=O)C(C)(C)SSC1(C)C (stereo partly drawn) [Peptide X, [Ac-Pen-(N-Me-Arg)-Ser-Asp-Thr-Leu-Pen-(Phe(4-tBu))-(β-homoGlu)-(D-Lys)]2-DIG] (I: Ac-[Pen][NMeR]SD[Thr(3ξ)]L[Pen][Phe(4-tBu)][β3hE][dK]-NH2 / II: Ac-[Pen][NMeR]SD[Thr(3ξ)]L[Pen][Phe(4-tBu)][β3hE][dK]-NH2; disulfide I:1-I:7, II:1-II:7; linker I:10-II:10 via Diglycolyl) | – | – | – | – | – | IC50 ([1]; human B cell lymphoblastoid RPMI8866, read-out: IC50 for blocking adhesion of RPMI8866 cell line to MAdCAM-1): 0.00072 µM; IC50 ([2]; 1 mM Mg^2+ binding conditions, read-out: IC50 for α4β7, competition ELISA): 0.003 µM |
